Reference: ChEMBL document CHEMBL1201862, “PubChem BioAssay data set” (2004)
Activity calls are given as the source filed them.

What was measured:
[1] = target: E3 ubiquitin-protein ligase Mdm2 (Homo sapiens, UniProt Q00987); assay: enhancers of MDM2-luciferase reporter signal, concentration-effect titration, project on inhibitors of MDM2 ubiquitin ligase, cellular assay, luminescent readout, 384-well plate format (AID 1394); type: functional;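 also: MDM2 E3 inhibitors raise luminescence so EC50 is for signal enhancement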
Chain of E3 ubiquitin-protein ligase Mdm2 (Q00987 whole entry): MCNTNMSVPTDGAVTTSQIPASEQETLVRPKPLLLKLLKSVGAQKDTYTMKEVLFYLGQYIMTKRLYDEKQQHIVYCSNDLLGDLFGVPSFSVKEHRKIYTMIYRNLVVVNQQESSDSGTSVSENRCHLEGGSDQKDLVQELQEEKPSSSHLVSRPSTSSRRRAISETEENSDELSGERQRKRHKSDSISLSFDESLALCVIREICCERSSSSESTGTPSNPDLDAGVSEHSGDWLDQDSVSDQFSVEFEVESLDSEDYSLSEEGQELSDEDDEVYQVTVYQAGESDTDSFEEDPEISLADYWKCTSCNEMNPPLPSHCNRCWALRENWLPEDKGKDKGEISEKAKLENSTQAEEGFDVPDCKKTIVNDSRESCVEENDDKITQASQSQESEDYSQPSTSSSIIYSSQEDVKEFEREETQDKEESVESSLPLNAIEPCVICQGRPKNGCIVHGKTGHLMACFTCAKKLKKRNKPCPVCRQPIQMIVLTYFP

NADPH oxidase 1 = NADPH oxidase 1 (Homo sapiens, UniProt Q9Y5S8); type: functional, cell-based;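 also: Cell-based assay with luminescence read-out, IC50 derived from inhibitor dose-response curves; intracellular ROS from endogenous NOX1 in intact HT29 colon cancer cells; potency of inhibitors that lower the ROS luminescence signal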
Chain of NADPH oxidase 1 (Q9Y5S8 whole entry): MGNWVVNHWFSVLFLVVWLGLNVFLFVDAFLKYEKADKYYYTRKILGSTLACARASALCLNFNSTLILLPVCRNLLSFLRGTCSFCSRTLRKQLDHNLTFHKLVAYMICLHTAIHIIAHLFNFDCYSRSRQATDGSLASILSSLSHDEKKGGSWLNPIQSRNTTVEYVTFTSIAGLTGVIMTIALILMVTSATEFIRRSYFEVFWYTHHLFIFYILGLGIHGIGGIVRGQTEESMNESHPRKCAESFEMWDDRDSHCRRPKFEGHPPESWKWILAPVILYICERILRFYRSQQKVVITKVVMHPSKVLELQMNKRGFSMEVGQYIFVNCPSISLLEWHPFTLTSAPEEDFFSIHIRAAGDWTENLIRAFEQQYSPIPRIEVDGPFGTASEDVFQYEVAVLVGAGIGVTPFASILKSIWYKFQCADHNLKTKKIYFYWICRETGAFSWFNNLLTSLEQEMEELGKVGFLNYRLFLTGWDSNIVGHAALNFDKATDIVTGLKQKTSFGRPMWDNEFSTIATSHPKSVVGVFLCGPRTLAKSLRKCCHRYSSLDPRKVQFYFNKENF

[2] = target: Mothers against decapentaplegic homolog 3 (Homo sapiens, UniProt P84022); assay: SMAD3 transcription factor inhibitors, dose response (AID 715); type: functional
Chain of Mothers against decapentaplegic homolog 3 (P84022 whole entry): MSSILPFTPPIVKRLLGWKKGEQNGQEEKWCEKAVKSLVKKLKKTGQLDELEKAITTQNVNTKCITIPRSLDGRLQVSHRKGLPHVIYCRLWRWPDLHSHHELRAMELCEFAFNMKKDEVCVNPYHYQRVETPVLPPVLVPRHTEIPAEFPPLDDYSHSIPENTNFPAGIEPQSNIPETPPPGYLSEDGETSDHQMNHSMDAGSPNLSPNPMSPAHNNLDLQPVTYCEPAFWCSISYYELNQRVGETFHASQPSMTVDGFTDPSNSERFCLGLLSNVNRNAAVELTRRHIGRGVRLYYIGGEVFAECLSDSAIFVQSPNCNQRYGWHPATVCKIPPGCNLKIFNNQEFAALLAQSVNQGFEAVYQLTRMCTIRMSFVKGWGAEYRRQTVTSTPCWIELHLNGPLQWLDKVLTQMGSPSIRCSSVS

[3] = target: Peroxisome proliferator-activated receptor gamma/Nuclear receptor coactivator 1 (Homo sapiens, UniProt P37231); type: functional;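 also: agonist potency as compounds enhance coactivator SRC-1 recruitment to PPARgamma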
[4] = target: Peroxisome proliferator-activated receptor gamma/Nuclear receptor coactivator 3 (Homo sapiens, UniProt P37231); type: functional;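 also: agonist potency for raising coactivator recruitment to the receptor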
Chain of Peroxisome proliferator-activated receptor gamma/Nuclear receptor coactivator 3 (P37231 whole entry): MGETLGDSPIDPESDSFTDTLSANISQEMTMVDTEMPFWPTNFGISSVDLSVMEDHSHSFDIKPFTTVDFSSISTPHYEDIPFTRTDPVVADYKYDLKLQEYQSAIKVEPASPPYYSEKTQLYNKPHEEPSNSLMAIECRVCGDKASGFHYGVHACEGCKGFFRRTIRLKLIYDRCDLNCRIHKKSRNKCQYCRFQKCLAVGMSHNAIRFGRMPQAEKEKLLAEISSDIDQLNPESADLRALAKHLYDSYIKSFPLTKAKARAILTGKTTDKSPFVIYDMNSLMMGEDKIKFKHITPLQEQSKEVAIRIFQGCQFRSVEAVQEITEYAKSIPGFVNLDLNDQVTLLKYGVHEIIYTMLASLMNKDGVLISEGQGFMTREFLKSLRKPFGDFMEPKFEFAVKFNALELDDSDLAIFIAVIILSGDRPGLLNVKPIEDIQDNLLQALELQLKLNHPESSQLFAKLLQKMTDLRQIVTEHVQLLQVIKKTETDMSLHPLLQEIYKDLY
Chain of Peroxisome proliferator-activated receptor gamma/Nuclear receptor coactivator 3 (Q9Y6Q9 whole entry, further chain): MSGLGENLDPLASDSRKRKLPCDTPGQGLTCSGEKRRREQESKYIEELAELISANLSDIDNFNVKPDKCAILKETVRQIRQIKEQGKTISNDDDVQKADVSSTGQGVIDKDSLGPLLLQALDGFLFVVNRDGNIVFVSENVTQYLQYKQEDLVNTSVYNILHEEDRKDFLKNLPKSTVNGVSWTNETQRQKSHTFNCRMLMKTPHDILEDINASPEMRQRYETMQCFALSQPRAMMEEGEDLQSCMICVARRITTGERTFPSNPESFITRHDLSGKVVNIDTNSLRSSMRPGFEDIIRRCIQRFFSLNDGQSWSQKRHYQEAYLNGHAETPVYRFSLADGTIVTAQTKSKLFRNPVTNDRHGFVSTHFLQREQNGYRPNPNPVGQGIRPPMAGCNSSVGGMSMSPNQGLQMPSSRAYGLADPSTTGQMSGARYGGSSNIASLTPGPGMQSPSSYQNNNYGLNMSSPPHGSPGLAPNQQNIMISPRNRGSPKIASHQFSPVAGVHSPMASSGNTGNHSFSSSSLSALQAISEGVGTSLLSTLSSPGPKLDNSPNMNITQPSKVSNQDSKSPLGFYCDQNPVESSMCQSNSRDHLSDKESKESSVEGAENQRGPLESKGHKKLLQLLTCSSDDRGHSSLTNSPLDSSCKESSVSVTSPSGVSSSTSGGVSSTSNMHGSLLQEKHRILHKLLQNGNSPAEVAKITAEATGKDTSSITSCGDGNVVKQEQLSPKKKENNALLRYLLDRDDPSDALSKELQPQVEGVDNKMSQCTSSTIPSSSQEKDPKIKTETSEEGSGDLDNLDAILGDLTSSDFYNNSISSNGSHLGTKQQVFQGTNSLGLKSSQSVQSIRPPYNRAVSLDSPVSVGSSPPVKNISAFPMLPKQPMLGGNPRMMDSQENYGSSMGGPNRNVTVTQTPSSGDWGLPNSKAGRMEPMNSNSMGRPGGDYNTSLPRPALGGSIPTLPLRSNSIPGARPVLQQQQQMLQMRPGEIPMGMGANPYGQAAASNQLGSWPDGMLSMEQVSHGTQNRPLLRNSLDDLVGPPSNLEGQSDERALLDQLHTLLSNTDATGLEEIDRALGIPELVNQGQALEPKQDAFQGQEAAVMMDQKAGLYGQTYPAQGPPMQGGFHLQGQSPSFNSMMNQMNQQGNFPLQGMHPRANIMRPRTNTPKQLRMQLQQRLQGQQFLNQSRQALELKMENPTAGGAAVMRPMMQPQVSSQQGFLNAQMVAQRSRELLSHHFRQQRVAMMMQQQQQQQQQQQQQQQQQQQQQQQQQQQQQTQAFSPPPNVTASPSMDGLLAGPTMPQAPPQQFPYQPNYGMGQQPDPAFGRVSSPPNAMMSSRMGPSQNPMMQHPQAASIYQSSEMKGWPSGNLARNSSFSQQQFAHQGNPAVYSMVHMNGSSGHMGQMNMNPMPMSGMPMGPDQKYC

[5] = target: Peroxisome proliferator-activated receptor gamma/Nuclear receptor coactivator 2 (Homo sapiens, UniProt P37231); type: functional;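 also: agonist potency for raising coactivator recruitment to the receptor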
Streptococcus = assay: Streptococcus pyogenes growth inhibition counter-screen, dose response, counter-screen for streptokinase expression inhibitor project, luminescence, BacTiter-Glo, strain UMAA2166 (AID 2477); type: functional, organism-based
Streptokinase A = target: T1, Streptokinase A (Streptococcus pyogenes serotype M1, UniProt P10520); assay: Absorbance Microorganism-Based Dose Response Follow up to Identify Inhibitors of Streptokinase Expression. [Related pubchem assays: 1677 (Project Summary), 1915, 1914, 1902 (Retest at Dose), 1900 (Counter Screen), 1662 (Primary HTS)]; type: functional, Streptococcus pyogenes M1 GAS
T1 sequence (P10520 whole entry): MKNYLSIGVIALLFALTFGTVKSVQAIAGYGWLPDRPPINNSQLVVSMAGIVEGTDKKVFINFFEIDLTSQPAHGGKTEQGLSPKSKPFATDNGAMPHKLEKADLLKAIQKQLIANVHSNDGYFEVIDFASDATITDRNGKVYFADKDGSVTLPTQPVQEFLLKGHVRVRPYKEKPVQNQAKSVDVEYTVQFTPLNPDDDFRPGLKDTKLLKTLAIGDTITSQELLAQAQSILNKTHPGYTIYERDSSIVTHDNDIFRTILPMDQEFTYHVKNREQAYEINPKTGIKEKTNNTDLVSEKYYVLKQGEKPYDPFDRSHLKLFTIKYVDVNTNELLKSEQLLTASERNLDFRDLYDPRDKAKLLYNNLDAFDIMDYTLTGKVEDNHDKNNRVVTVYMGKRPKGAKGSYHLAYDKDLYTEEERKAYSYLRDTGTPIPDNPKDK

[6] = target: Lytic switch protein BZLF1 (Epstein-Barr virus (strain B95-8) (HHV-4) (Human herpesvirus 4), UniProt P03206); assay: EBV ZTA inhibitors, dose response, counter-screen for EBNA-1 inhibitor project, biochemical, fluorescence polarization, Epstein-Barr virus, 1536-well (AID 2377); design: species or system human gammaherpesvirus 4;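 also: fluorescence polarization of Cy5-labelled ZRE DNA probe bound by purified Zta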
Chain of Lytic switch protein BZLF1 (P03206 whole entry): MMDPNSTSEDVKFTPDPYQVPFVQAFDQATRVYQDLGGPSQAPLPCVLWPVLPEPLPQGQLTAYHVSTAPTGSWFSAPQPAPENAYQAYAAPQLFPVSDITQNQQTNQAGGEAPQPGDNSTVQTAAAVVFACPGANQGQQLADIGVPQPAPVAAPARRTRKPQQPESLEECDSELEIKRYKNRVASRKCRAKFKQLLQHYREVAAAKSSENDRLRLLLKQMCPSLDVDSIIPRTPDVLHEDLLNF

[7] = target: Epstein-Barr nuclear antigen 1 (Epstein-Barr virus (strain B95-8) (HHV-4) (Human herpesvirus 4), UniProt P03211); assay: EBNA-1 inhibitors, dose response, biochemical, fluorescence polarization, 1536-well (AID 2381); design: species or system human gammaherpesvirus 4;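 also: fluorescence polarization of a Cy5 DNA probe bound by EBNA-1 protein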
Chain of Epstein-Barr nuclear antigen 1 (P03211 whole entry): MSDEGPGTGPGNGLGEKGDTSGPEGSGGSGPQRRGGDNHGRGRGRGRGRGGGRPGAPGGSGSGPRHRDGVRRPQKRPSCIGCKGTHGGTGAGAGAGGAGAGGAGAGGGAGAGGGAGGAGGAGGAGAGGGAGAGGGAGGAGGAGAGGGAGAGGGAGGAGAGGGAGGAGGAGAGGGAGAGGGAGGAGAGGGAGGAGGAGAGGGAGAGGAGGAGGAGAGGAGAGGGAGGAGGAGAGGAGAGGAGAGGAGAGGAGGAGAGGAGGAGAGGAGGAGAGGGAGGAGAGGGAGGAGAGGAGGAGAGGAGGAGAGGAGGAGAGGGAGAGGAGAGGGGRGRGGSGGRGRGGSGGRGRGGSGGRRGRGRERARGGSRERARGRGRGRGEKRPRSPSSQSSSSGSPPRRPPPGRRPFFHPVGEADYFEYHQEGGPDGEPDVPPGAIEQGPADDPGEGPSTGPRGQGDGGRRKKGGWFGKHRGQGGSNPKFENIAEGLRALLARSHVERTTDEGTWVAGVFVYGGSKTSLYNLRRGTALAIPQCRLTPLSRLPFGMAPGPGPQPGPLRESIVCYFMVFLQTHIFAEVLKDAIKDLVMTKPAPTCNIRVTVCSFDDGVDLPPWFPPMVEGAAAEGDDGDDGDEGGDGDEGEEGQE

[8] = Luminescent dose response cell-based high throughput screening assay for inhibitors of the Janus kinase 2 mutant JAK2V617F. [Related pubchem assays: 1446 (Primary screen.), 1521 (Confirmation assay.), 1486 (Counter screen.)]; type: functional
[9] = target: T2, High affinity choline transporter 1 (Homo sapiens, UniProt Q9GZV3); assay: CHT inhibitors, dose response, cell-based, 5-point CRC, membrane potential dye (AID 504840); type: functional
T2 sequence (Q9GZV3 whole entry): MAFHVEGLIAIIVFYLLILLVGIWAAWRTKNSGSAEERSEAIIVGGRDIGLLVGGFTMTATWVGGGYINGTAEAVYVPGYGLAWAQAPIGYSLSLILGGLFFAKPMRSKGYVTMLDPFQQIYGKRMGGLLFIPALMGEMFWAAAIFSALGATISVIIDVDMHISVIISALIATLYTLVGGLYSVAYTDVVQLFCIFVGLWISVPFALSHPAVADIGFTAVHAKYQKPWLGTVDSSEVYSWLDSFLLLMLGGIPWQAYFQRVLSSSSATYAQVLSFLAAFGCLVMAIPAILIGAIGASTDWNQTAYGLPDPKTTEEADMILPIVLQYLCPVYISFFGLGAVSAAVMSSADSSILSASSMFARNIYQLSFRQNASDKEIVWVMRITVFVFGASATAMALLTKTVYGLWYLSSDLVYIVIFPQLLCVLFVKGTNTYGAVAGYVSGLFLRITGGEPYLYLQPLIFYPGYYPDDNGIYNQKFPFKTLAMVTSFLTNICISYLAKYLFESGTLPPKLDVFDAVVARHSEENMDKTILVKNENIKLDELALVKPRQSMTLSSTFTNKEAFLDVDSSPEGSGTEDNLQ

[10] = Luminescence Cell-Based Dose Confirmation HTS to Identify Inhibitors of Platelet Dense Granule Release. [Related pubchem assays: 1663 (Primary HTS), 1678 (Summary of Project)]; type: functional
[11] = target: Luciferin 4-monooxygenase (Photinus pyralis, UniProt P08659); assay: firefly luciferase enzyme inhibitors, dose response, biochemical, luminescence (AID 1891)
Chain of Luciferin 4-monooxygenase (P08659 whole entry): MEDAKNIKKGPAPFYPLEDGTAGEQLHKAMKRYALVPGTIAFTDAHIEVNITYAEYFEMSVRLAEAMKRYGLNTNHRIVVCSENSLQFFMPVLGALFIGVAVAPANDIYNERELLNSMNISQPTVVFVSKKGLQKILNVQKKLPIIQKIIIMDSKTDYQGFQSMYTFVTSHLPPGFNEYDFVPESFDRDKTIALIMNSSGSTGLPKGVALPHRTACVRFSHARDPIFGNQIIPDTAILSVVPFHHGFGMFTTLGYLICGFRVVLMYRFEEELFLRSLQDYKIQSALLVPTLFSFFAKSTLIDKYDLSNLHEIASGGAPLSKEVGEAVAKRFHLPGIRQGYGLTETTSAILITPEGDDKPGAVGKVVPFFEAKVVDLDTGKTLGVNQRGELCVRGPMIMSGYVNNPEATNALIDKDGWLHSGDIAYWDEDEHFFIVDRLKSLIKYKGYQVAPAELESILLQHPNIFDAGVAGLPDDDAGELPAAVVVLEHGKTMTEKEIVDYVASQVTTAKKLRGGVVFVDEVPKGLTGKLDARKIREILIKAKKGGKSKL

Bcl-2-related protein A1 [12] = target: T3, Bcl-2-related protein A1 (Mus musculus, UniProt Q07440); assay: Bfl-1 binding inhibitors, SAR follow-up, biochemical, fluorescence polarization (AID 1070)
T3 sequence (Q07440 whole entry): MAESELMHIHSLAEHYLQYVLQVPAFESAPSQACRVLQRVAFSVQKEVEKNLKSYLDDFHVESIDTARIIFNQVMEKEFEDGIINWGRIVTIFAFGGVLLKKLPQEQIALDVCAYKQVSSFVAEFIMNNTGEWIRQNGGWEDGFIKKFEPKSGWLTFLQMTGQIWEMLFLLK

Bcl-2-related protein A1 [13] = target: T3, Bcl-2-related protein A1; assay: Bfl-1 inhibitors blocking BH3 peptide binding, confirmation, biochemical, TR-FRET, mouse Bfl-1 (AID 621);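 also: TR-FRET binding of GST-Bfl-1 to FITC-labelled Bid peptide via terbium antibody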

Cc1cc2cc(C)c(SCC(=O)NCc3ccco3)nc2cc1C
EC50 [1]: 489 µM (not active)

COc1ccc(-c2nc(-c3ccccc3)c(-c3ccccc3)[nH]2)cc1O
IC50 (NADPH oxidase 1): > 17 µM (not active)

CCCCOC(=O)CSc1nc(N)c(C#N)c(-c2ccc(OCC)cc2)c1C#N
IC50 [2]: 11 µM (active)
EC50 [3]: 11.2 µM (not active)
EC50 [4]: > 79.4 µM (not active)
EC50 [5]: 9.42 µM (active)

COc1ccc(Sc2ccc(NC(=O)c3cccc(Cl)c3)cc2C#N)cc1
EC50 (Streptococcus): > 500 µM (not active)
EC50 (Streptokinase A): 8.99 µM (active)

COc1cc(NC(=O)c2ccc(Br)cc2)c(OC)cc1NC(=O)c1ccccc1
IC50 [6]: > 111 µM (not active)
IC50 [7]: 15.4 µM (not active)

COc1cc2c(cc1OC)-c1cc(N3CCCc4ccccc43)nc(=O)n1CC2
IC50 [8]: > 40 µM (not active)
IC50 [9]: 13.2 µM (active)
EC50 [10]: 3.35 µM (active)
EC50 [11]: > 112 µM (not active)

Clc1ccc(-n2nnc(-c3cnc4ccccc4c3)n2)cc1Cl
IC50 (Bcl-2-related protein A1 [12]): > 100 µM (not active)
IC50 (Bcl-2-related protein A1 [13]): > 100 µM (not active)
